Literature values as cited in article PMC6426469 (Science Advances, 2019).

Assays:
APP/PS1 mice [1] = settings: 1-week treatment
APP/PS1 mice [2] = settings: prolonged treatment for 30 days
DG granule cells = settings: previous study

Compound	memory impairments, passive avoidance test (APP/PS1 mice [1])	spatial memory impairments, Morris water maze (APP/PS1 mice [2])	efficacy on spike probability (DG granule cells)
C#CCN(C)[C@H](C)Cc1ccccc1 [Selegiline, selegiline]	effective in rescuing memory impairments	failed to significantly reverse spatial memory impairments	
C[C@H](NCc1ccc(OCc2cccc(F)c2)cc1)C(N)=O [safinamide]			showed prolonged efficacy
